US9073903B2, “Imidazole-2,4-dione inhibitors of casein kinase 1” (Jasco Pharmaceuticals, LLC, priority 2010, dated 2015)
Where two headings read alike, the source gives them in different places.

Legend:
[1] = system: MDA-MB-468 cells; experiment: Inhibition of MDA-MB-468 cells (MTS cell proliferation); type: cell-based; conditions: for OD value 1 / OD value 2: 490 nm; for OD value 1 / OD value 2 / inhibition at 0.4 µM / inhibition at 0.8 µM / inhibition at 1.6 µM / inhibition at 3.2 µM / inhibition at 6.25 µM / inhibition at 12.5 µM / inhibition at 25 µM / inhibition at 50 µM / inhibition at 100 µM: 72 h; for inhibition at 0.4 µM / inhibition at 0.8 µM / inhibition at 1.6 µM / inhibition at 3.2 µM / inhibition at 6.25 µM / inhibition at 12.5 µM / inhibition at 25 µM / inhibition at 50 µM / inhibition at 100 µM / IC50: Homo sapiens
Procedure: Inhibition of MDA-MB-468 Cells Cells: MDA-MB-468 cells, ATCC Passage unknown, Mycoplasma free. Medium: RPMI-1640 Medium (GIBCO Cat #22400121) supplemented with 10% fetal bovine serum (Hyclone Cat #SH30396.03). Seeding: 2,000 cells/well (100 ul) into 96-wells plate, incubated overnight at 37° C. in a humidified, 5% CO2 atmosphere. Treatment: Test compounds and Gemcitabine were prepared in a serial dilution (1:2) by culture medium. Fifty microliters (50 uL) of serially diluted solutions were added into each well. The final concentrations of the positive control and test compounds were shown in the graphs. The cells were incubated for 72 hours after addition of the test compounds. MTS: 15 uL of MTS solution (Promega Cat #G5430) was added into each well and incubated with cells for 4 hours at 37° C. in a humidified, 5% CO2 atmosphere. Measurement: Absorbance at 490 nm was measured using MD Spectramax Plus384 spectrophotometer. The regression curves were calculated by the GraphPad Prism 5 using “log(inhibitor) vs response—variable slope”.

[2] = system: LNCaP; experiment: Inhibition of LNCaP cells (MTS cell proliferation); type: cell-based; conditions: for OD value 1 / OD value 2: 490 nm; for OD value 1 / OD value 2 / inhibition at 0.4 µM / inhibition at 0.8 µM / inhibition at 1.6 µM / inhibition at 3.2 µM / inhibition at 6.25 µM / inhibition at 12.5 µM / inhibition at 25 µM / inhibition at 50 µM / inhibition at 100 µM: 72 h; for inhibition at 0.4 µM / inhibition at 0.8 µM / inhibition at 1.6 µM / inhibition at 3.2 µM / inhibition at 6.25 µM / inhibition at 12.5 µM / inhibition at 25 µM / inhibition at 50 µM / inhibition at 100 µM / IC50: Homo sapiens
Procedure: Inhibition of LNCaP Cells Cells: LNCaP, ATCC Passage unknown, Mycoplasma free. Medium: RPMI-1640 Medium (GIBCO Cat #22400121) supplemented with 10% fetal bovine serum (Hyclone Cat #SH30396.03). Seeding: 3,000 cells/well (100 uL) into 96-wells plate, incubated overnight at 37° C. in a humidified, 5% CO2 atmosphere. Treatment: Test compounds and Gemcitabine were prepared in a serial dilution (1:2) by culture medium. Fifty microliters (50 uL) of serially diluted solutions were added into each well. The final concentrations of the positive control and test compounds were shown in the graphs. The cells were incubated for 72 hours after addition of the test compounds. MTS: 15 uL of MTS solution (Promega Cat #G5430) was added into each well and incubated with cells for 4 hours at 37° C. in a humidified, 5% CO2 atmosphere. Measurement: Absorbance at 490 nm was measured using MD Spectramax Plus384 spectrophotometer. The regression curves were calculated by the GraphPad Prism 5 using “log(inhibitor) vs response—variable slope”. Calculation: % of inhibition+(AVE zero ctrl−AVE compound)/AVE zero ctrl*100.

For `Nc1ccn([C@@H]2O[C@H](CO)[C@@H](O)C2(F)F)c(=O)n1` [Gemcitabine], the “OD value 1” value ([1]; 0.400 μM, replicate 1) was 0.313, the “OD value 2” value ([1]; 0.400 μM, replicate 2) was 0.337 and the “OD value 1” value ([1]; 0.800 μM, replicate 1) was 0.275. For the same molecule, the “OD value 2” value ([1]; 0.800 μM, replicate 2) was 0.310, the “OD value 1” value ([1]; 1.600 μM, replicate 1) was 0.201 and the “OD value 2” value ([1]; 1.600 μM, replicate 2) was 0.264. The “OD value 1” value ([1]; 3.200 μM, replicate 1) was 0.151, the “OD value 2” value ([1]; 3.200 μM, replicate 2) was 0.192 and the “OD value 1” value ([1]; 6.250 μM, replicate 1) was 0.101. The “OD value 2” value ([1]; 6.250 μM, replicate 2) was 0.105, the “OD value 1” value ([1]; 12.500 μM, replicate 1) was 0.066 and the “OD value 2” value ([1]; 12.500 μM, replicate 2) was 0.053. The “OD value 1” value ([1]; 25.000 μM, replicate 1) was 0.033, the “OD value 2” value ([1]; 25.000 μM, replicate 2) was 0.035 and the “OD value 1” value ([1]; 50.000 μM, replicate 1) was 0.064. The “OD value 2” value ([1]; 50.000 μM, replicate 2) was 0.064, the “OD value 1” value ([1]; 100.000 μM, replicate 1) was 0.034 and the “OD value 2” value ([1]; 100.000 μM, replicate 2) was 0.007. For the same molecule, the inhibition at 0.4 µM ([1]; MDA-MB-468, 0.400 μM, replicate 1, read-out: % of inhibition 1) was 6.01%, the inhibition at 0.4 µM ([1]; MDA-MB-468, 0.400 μM, replicate 2, read-out: % of inhibition 2) was 1.17% and the inhibition at 0.8 µM ([1]; MDA-MB-468, 0.800 μM, replicate 1, read-out: % of inhibition 1) was 17.4%. The inhibition at 0.8 µM ([1]; MDA-MB-468, 0.800 μM, replicate 2, read-out: % of inhibition 2) was 9.08%, the inhibition at 1.6 µM ([1]; MDA-MB-468, 1.600 μM, replicate 1, read-out: % of inhibition 1) was 39.6% and the inhibition at 1.6 µM ([1]; MDA-MB-468, 1.600 μM, replicate 2, read-out: % of inhibition 2) was 22.6%. For the same molecule, the inhibition at 3.2 µM ([1]; MDA-MB-468, 3.200 μM, replicate 1, read-out: % of inhibition 1) was 54.7%, the inhibition at 3.2 µM ([1]; MDA-MB-468, 3.200 μM, replicate 2, read-out: % of inhibition 2) was 43.6% and the inhibition at 6.25 µM ([1]; MDA-MB-468, 6.250 μM, replicate 1, read-out: % of inhibition 1) was 69.7%. The inhibition at 6.25 µM ([1]; MDA-MB-468, 6.250 μM, replicate 2, read-out: % of inhibition 2) was 69.1%, the inhibition at 12.5 µM ([1]; MDA-MB-468, 12.500 μM, replicate 1, read-out: % of inhibition 1) was 80.2% and the inhibition at 12.5 µM ([1]; MDA-MB-468, 12.500 μM, replicate 2, read-out: % of inhibition 2) was 84.4%. For the same molecule, the inhibition at 25 µM ([1]; MDA-MB-468, 25.000 μM, replicate 1, read-out: % of inhibition 1) was 90.1%, the inhibition at 25 µM ([1]; MDA-MB-468, 25.000 μM, replicate 2, read-out: % of inhibition 2) was 89.6% and the inhibition at 50 µM ([1]; MDA-MB-468, 50.000 μM, replicate 1, read-out: % of inhibition 1) was 80.8%. For the same molecule, the inhibition at 50 µM ([1]; MDA-MB-468, 50.000 μM, replicate 2, read-out: % of inhibition 2) was 81.1%, the inhibition at 100 µM ([1]; MDA-MB-468, 100.000 μM, replicate 1, read-out: % of inhibition 1) was 89.8% and the inhibition at 100 µM ([1]; MDA-MB-468, 100.000 μM, replicate 2, read-out: % of inhibition 2) was 97.8%. It also gave an IC50 ([1]; MDA-MB-468, Table 17, read-out: MDA-MB-468* 50% inhibition concentration) of 3340 nM, an IC50 ([1]; Table 26, MDA-MB-468, 72 hours, read-out: 50% viability conc.) of 3340 nM and an IC50 ([1]; Table 26, MDA-MB-468, 72 hours, read-out: IC50) of 2530 nM. The Maximal inhibition % ([1]; Table 26, MDA-MB-468, 72 hours) was 93.83%, the “OD value 1” value ([2]; 0.400 uM, replicate 1) was 0.578 and the “OD value 2” value ([2]; 0.400 uM, replicate 2) was 0.662. For the same molecule, the “OD value 1” value ([2]; 0.800 uM, replicate 1) was 0.459, the “OD value 2” value ([2]; 0.800 uM, replicate 2) was 0.434 and the “OD value 1” value ([2]; 1.600 uM, replicate 1) was 0.448. For the same molecule, the “OD value 2” value ([2]; 1.600 uM, replicate 2) was 0.472, the “OD value 1” value ([2]; 3.200 uM, replicate 1) was 0.322 and the “OD value 2” value ([2]; 3.200 uM, replicate 2) was 0.337. For the same molecule, the “OD value 1” value ([2]; 6.250 uM, replicate 1) was 0.182, the “OD value 2” value ([2]; 6.250 uM, replicate 2) was 0.190 and the “OD value 1” value ([2]; 12.500 uM, replicate 1) was 0.166. The “OD value 2” value ([2]; 12.500 uM, replicate 2) was 0.173, the “OD value 1” value ([2]; 25.000 uM, replicate 1) was 0.101 and the “OD value 2” value ([2]; 25.000 uM, replicate 2) was 0.177. For the same molecule, the “OD value 1” value ([2]; 50.000 uM, replicate 1) was 0.124, the “OD value 2” value ([2]; 50.000 uM, replicate 2) was 0.202 and the “OD value 1” value ([2]; 100.000 uM, replicate 1) was 0.112. For the same molecule, the “OD value 2” value ([2]; 100.000 uM, replicate 2) was 0.197, the inhibition at 0.4 µM ([2]; LNCaP, 0.400 uM, replicate 1, read-out: % of inhibition 1) was 12.8% and the inhibition at 0.4 µM ([2]; LNCaP, 0.400 uM, replicate 2, read-out: % of inhibition 2) was 13.6%. For the same molecule, the inhibition at 0.8 µM ([2]; LNCaP, 0.800 uM, replicate 1, read-out: % of inhibition 1) was 30.8%, the inhibition at 0.8 µM ([2]; LNCaP, 0.800 uM, replicate 2, read-out: % of inhibition 2) was 43.4% and the inhibition at 1.6 µM ([2]; LNCaP, 1.600 uM, replicate 1, read-out: % of inhibition 1) was 32.4%. The inhibition at 1.6 µM ([2]; LNCaP, 1.600 uM, replicate 2, read-out: % of inhibition 2) was 38.4%, the inhibition at 3.2 µM ([2]; LNCaP, 3.200 uM, replicate 1, read-out: % of inhibition 1) was 51.4% and the inhibition at 3.2 µM ([2]; LNCaP, 3.200 uM, replicate 2, read-out: % of inhibition 2) was 56%. For the same molecule, the inhibition at 6.25 µM ([2]; LNCaP, 6.250 uM, replicate 1, read-out: % of inhibition 1) was 72.5%, the inhibition at 6.25 µM ([2]; LNCaP, 6.250 uM, replicate 2, read-out: % of inhibition 2) was 75.2% and the inhibition at 12.5 µM ([2]; LNCaP, 12.500 uM, replicate 1, read-out: % of inhibition 1) was 75%. The inhibition at 12.5 µM ([2]; LNCaP, 12.500 uM, replicate 2, read-out: % of inhibition 2) was 77.4%, the inhibition at 25 µM ([2]; LNCaP, 25.000 uM, replicate 1, read-out: % of inhibition 1) was 84.8% and the inhibition at 25 µM ([2]; LNCaP, 25.000 uM, replicate 2, read-out: % of inhibition 2) was 76.9%. The inhibition at 50 µM ([2]; LNCaP, 50.000 uM, replicate 1, read-out: % of inhibition 1) was 81.3%, the inhibition at 50 µM ([2]; LNCaP, 50.000 uM, replicate 2, read-out: % of inhibition 2) was 73.6% and the inhibition at 100 µM ([2]; LNCaP, 100.000 uM, replicate 1, read-out: % of inhibition 1) was 83.1%. The inhibition at 100 µM ([2]; LNCaP, 100.000 uM, replicate 2, read-out: % of inhibition 2) was 74.3%, the IC50 ([2]; LNCaP, Table 18, read-out: LNCaP* 50% inhibition concentration) was 1970 nM and the IC50 ([2]; Table 26, LNCaP, 72 hours, read-out: 50% viability conc.) was 1970 nM. For the same molecule, the IC50 ([2]; Table 26, LNCaP, 72 hours, read-out: IC50) was 2380 nM and the Maximal inhibition % ([2]; Table 26, LNCaP, 72 hours) was 78.69%.
